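Protocol summary: plate cells (96-well), add compound at 5 concentrations, incubate 48 h, interpolate endpoints linearly. Here, GI50 denotes the concentration required for 50% inhibition of growth. TGI denotes the concentration required for complete inhibition of growth.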
Columns and labels:
Experiment in all cases: NCI tumour cell line growth inhibition, 48 h
ACHN renal = system: ACHN renal
CAKI-1 renal = system: CAKI-1 renal
HCT-116 colon = system: HCT-116 colon
HOP-92 NSCLC = system: HOP-92 NSCLC
K-562 leukemia = system: K-562 leukemia
NCI-H522 lung = system: NCI-H522 lung
OVCAR-4 ovarian = system: OVCAR-4 ovarian
PC-3 prostate = system: PC-3 prostate
TK-10 renal = system: TK-10 renal
UO-31 renal = system: UO-31 renal

With `O=C1Nc2cc(-c3ccc(O)cc3)ccc2/C1=C/c1ccc[nH]1` the GI50 (ACHN renal) was 0.0504 µM, the TGI (ACHN renal) was 3.6 µM and the GI50 (CAKI-1 renal) was 0.0435 µM. For the same molecule, the TGI (CAKI-1 renal) was 3.59 µM, the GI50 (HCT-116 colon) was 0.115 µM and the TGI (HCT-116 colon) was greater than 100 µM. For the same molecule, the GI50 (HOP-92 NSCLC) was 1.14 µM, the TGI (HOP-92 NSCLC) was 5.12 µM and the GI50 (K-562 leukemia) was 0.0335 µM. For the same molecule, the TGI (K-562 leukemia) was greater than 75.9 µM, the GI50 (NCI-H522 lung) was 0.258 µM and the TGI (NCI-H522 lung) was greater than 20.1 µM. For the same molecule, the GI50 (OVCAR-4 ovarian) was 0.302 µM, the TGI (OVCAR-4 ovarian) was greater than 51.3 µM and the GI50 (PC-3 prostate) was 0.416 µM. It also gave a TGI (PC-3 prostate) greater than 25.8 µM, a GI50 (TK-10 renal) of 0.418 µM and a TGI (TK-10 renal) greater than 71.9 µM. It also gave a GI50 (UO-31 renal) of 0.13 µM and a TGI (UO-31 renal) of 2.06 µM.

In the case of `O=C1c2ccccc2-c2c1c1ccc([N+](=O)[O-])cc1c(=O)n2CCN1CCOCC1`, the GI50 (ACHN renal) is reported as 33.4 µM, the TGI (ACHN renal) is reported as greater than 100 µM and the GI50 (CAKI-1 renal) is reported as 41.3 µM. For the same molecule, the TGI (CAKI-1 renal) was greater than 100 µM, the GI50 (HCT-116 colon) was greater than 100 µM and the TGI (HCT-116 colon) was greater than 100 µM. For the same molecule, the GI50 (HOP-92 NSCLC) was 26.2 µM, the TGI (HOP-92 NSCLC) was greater than 100 µM and the GI50 (K-562 leukemia) was greater than 100 µM. The TGI (K-562 leukemia) was greater than 100 µM, the GI50 (NCI-H522 lung) was greater than 100 µM and the TGI (NCI-H522 lung) was greater than 100 µM. It also gave a GI50 (OVCAR-4 ovarian) greater than 100 µM, a TGI (OVCAR-4 ovarian) greater than 100 µM and a GI50 (PC-3 prostate) greater than 100 µM. For the same molecule, the TGI (PC-3 prostate) was greater than 100 µM, the GI50 (TK-10 renal) was greater than 100 µM and the TGI (TK-10 renal) was greater than 100 µM. The GI50 (UO-31 renal) was greater than 100 µM and the TGI (UO-31 renal) was greater than 100 µM.

Work on `Cc1cc(O)cc(-c2nn(C)cc2-c2cc(N3CCOCC3)nc(-c3cccnc3)n2)c1` yielded a GI50 (ACHN renal) of 3.68 µM, a TGI (ACHN renal) of 41.2 µM and a GI50 (CAKI-1 renal) of 3.32 µM. It also gave a TGI (CAKI-1 renal) greater than 100 µM, a GI50 (HCT-116 colon) of 3.06 µM and a TGI (HCT-116 colon) greater than 100 µM. For the same molecule, the GI50 (HOP-92 NSCLC) was 1.66 µM, the TGI (HOP-92 NSCLC) was 8.64 µM and the GI50 (K-562 leukemia) was 1.96 µM. The TGI (K-562 leukemia) was greater than 100 µM, the GI50 (NCI-H522 lung) was 2.79 µM and the TGI (NCI-H522 lung) was 18.1 µM. The GI50 (OVCAR-4 ovarian) was 7.74 µM, the TGI (OVCAR-4 ovarian) was greater than 100 µM and the GI50 (PC-3 prostate) was 2.44 µM. The TGI (PC-3 prostate) was 17.2 µM, the GI50 (TK-10 renal) was 8.68 µM and the TGI (TK-10 renal) was 95.3 µM. For the same molecule, the GI50 (UO-31 renal) was 3.44 µM and the TGI (UO-31 renal) was 43.3 µM.

Work on `COC(=O)C[C@@H]1CC=CC(=O)/C1=C(O)/C=C/c1ccccc1` yielded a GI50 (ACHN renal) of 0.268 µM, a TGI (ACHN renal) of 0.743 µM and a GI50 (CAKI-1 renal) of 0.408 µM. It also gave a TGI (CAKI-1 renal) of 1.41 µM, a GI50 (HCT-116 colon) of 0.169 µM and a TGI (HCT-116 colon) of 0.329 µM. It also gave a GI50 (HOP-92 NSCLC) of 1.33 µM, a TGI (HOP-92 NSCLC) of 2.82 µM and a GI50 (K-562 leukemia) of 0.364 µM. The GI50 (NCI-H522 lung) was 0.32 µM, the TGI (NCI-H522 lung) was 0.959 µM and the GI50 (OVCAR-4 ovarian) was 1.54 µM. It also gave a TGI (OVCAR-4 ovarian) of 2.96 µM, a GI50 (PC-3 prostate) of 0.856 µM and a TGI (PC-3 prostate) of 3.76 µM. It also gave a GI50 (TK-10 renal) of 0.916 µM, a TGI (TK-10 renal) of 5.69 µM and a GI50 (UO-31 renal) of 0.303 µM. It also gave a TGI (UO-31 renal) of 0.826 µM.

For `COc1ncc(-c2ccc3ncnc(Nc4cccc(Cl)c4)c3c2)cc1NS(C)(=O)=O`, the GI50 (ACHN renal) was 0.485 µM, the TGI (ACHN renal) was greater than 100 µM and the GI50 (CAKI-1 renal) was 0.457 µM. It also gave a TGI (CAKI-1 renal) of 10.8 µM, a GI50 (HCT-116 colon) of 2.33 µM and a TGI (HCT-116 colon) of 10.9 µM. For the same molecule, the GI50 (HOP-92 NSCLC) was 0.472 µM, the TGI (HOP-92 NSCLC) was 5.28 µM and the GI50 (K-562 leukemia) was 4.51 µM. It also gave a TGI (K-562 leukemia) of 85.3 µM, a GI50 (NCI-H522 lung) of 2.14 µM and a TGI (NCI-H522 lung) of 18.4 µM. For the same molecule, the GI50 (OVCAR-4 ovarian) was 4.97 µM, the TGI (OVCAR-4 ovarian) was 64.3 µM and the GI50 (PC-3 prostate) was 2.02 µM. It also gave a TGI (PC-3 prostate) of 16.6 µM, a GI50 (TK-10 renal) of 0.183 µM and a TGI (TK-10 renal) of 1.4 µM. For the same molecule, the GI50 (UO-31 renal) was 0.354 µM and the TGI (UO-31 renal) was 8.96 µM.

— PubChem BioAssay (NCI)
